Laboratory results reported in the supplement of paper PMC10307832.

What was measured:
Experiment in all cases: relative viability (nuclei count vs DMSO), 5 days (fraction); higher = more cells survive
[1] = compound: COc1cc2ncn(-c3cc(OCc4ccccc4C(F)(F)F)c(C(N)=O)s3)c2cc1OC + CC(=O)c1c(C)c2cnc(Nc3ccc(N4CCNCC4)cn3)nc2n(C2CCCC2)c1=O [Palbociclib] (partner 0.5 µM)
Procedure, shortened: (§1)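 Five library-drug doses in √10 steps were combined with a fixed anchor-drug dose, or a single drug was given alone, by pin tool to lung cancer cell lines in 1536-well plates the day after seeding. Nuclei were stained and counted after 5 days. Relative viability is the nuclei count in treated wells over that in vehicle wells, taken as the median of duplicate plates.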

[2] = compound: COc1cc2ncn(-c3cc(OCc4ccccc4C(F)(F)F)c(C(N)=O)s3)c2cc1OC + Cc1nc(NC(=O)N2CCC[C@H]2C(N)=O)sc1-c1ccnc(C(C)(C)C(F)(F)F)c1 [Alpelisib] (partner 2 µM)
Procedure, shortened: as §1

[3] = compound: COc1cc2ncn(-c3cc(OCc4ccccc4C(F)(F)F)c(C(N)=O)s3)c2cc1OC + Nc1nc2[nH]cc(CCc3ccc(C(=O)N[C@@H](CCC(=O)O)C(=O)O)cc3)c2c(=O)[nH]1 [Pemetrexed] (partner 0.2 µM)
Procedure, shortened: as §1

[4] = compound: COc1cc2ncn(-c3cc(OCc4ccccc4C(F)(F)F)c(C(N)=O)s3)c2cc1OC + O=C(c1cc(Cc2n[nH]c(=O)c3ccccc23)ccc1F)N1CCN(C(=O)C2CC2)CC1 [Olaparib] (partner 8 µM)
Procedure, shortened: as §1

Cell Line	relative viability ([1]; first compound 0.05 µM)	relative viability ([1]; first compound 0.1581 µM)	relative viability ([1]; first compound 0.5 µM)	relative viability ([1]; first compound 1.581 µM)	relative viability ([1]; first compound 5 µM)	relative viability ([2]; first compound 0.05 µM)	relative viability ([2]; first compound 0.1581 µM)	relative viability ([2]; first compound 0.5 µM)	relative viability ([2]; first compound 1.581 µM)	relative viability ([2]; first compound 5 µM)	relative viability ([3]; first compound 0.05 µM)	relative viability ([3]; first compound 0.1581 µM)	relative viability ([3]; first compound 0.5 µM)	relative viability ([3]; first compound 1.581 µM)	relative viability ([3]; first compound 5 µM)	relative viability ([4]; first compound 0.05 µM)	relative viability ([4]; first compound 0.1581 µM)	relative viability ([4]; first compound 0.5 µM)	relative viability ([4]; first compound 1.581 µM)	relative viability ([4]; first compound 5 µM)
LXF-289	0.607	0.57	0.481	0.233	0.107	0.994	0.801	0.138	0.0881	0.0604	0.897	0.674	0.597	0.184	0.0849	0.704	0.817	0.269	0.0639	0.0504
NCI-H23	0.313	0.408	0.285	0.148	0.121	0.836	0.363	0.326	0.137	0.102	0.648	0.583	0.208	0.184	0.112	0.187	0.239	0.166	0.128	0.0947
NCI-H322M	0.519	0.511	0.457	0.429	0.484	0.797	0.847	0.687	0.426	0.336	0.682	0.707	0.524	0.429	0.352	0.717	0.778	0.594	0.475	0.423
NCI-H358	0.139	0.126	0.11	0.0792	0.0843	0.852	1	0.386	0.127	0.177	0.196	0.167	0.192	0.102	0.0855	0.552	0.516	0.195	0.0846	0.078
NCI-H441	0.243	0.255	0.172	0.125	0.147	0.771	0.506	0.161	0.177	0.156	0.248	0.27	0.189	0.148	0.158	0.349	0.34	0.242	0.175	0.146
NCI-H460	0.185	0.172	0.173	0.0095	0.0133	0.51	0.537	0.0496	0.0115	0.0095	0.0574	0.0651	0.0638	0.0225	0.0159	0.468	0.357	0.0734	0.0365	0.0215
NCI-H520	0.149	0.253	0.179	0.155	0.121	1.08	0.882	0.508	0.186	0.158	0.301	0.663	0.247	0.204	0.171	0.198	0.247	0.193	0.182	0.142
NCI-H647	0.436	0.39	0.174	0.0732	0.077	1.23	1.1	0.214	0.079	0.0802	0.179	0.176	0.0943	0.06	0.0757	0.474	0.331	0.103	0.0536	0.0596
NCI-H650	0.301	0.335	0.279	0.188	0.34	1.11	1.1	0.698	0.185	0.29	1.01	0.923	0.768	0.261	0.458	0.367	0.41	0.26	0.15	0.272
NCI-H661	0.441	0.428	0.335	0.248	0.241	0.855	0.367	0.499	0.26	0.224	0.989	0.819	0.482	0.303	0.269	0.68	0.681	0.349	0.332	0.274
NCI-H838	0.255	0.231	0.161	0.111	0.0913	1.25	1.02	0.956	0.36	0.142	0.216	0.278	0.221	0.143	0.114	0.491	0.679	0.365	0.0997	0.121
NCI-H1355	0.271	0.423	0.345	0.186	0.152	0.879	0.827	0.669	0.208	0.143	1.12	0.924	0.88	0.223	0.141	0.486	0.671	0.3	0.15	0.128
NCI-H1395	0.614	0.763	0.507	0.377	0.28	1.04	1.11	0.726	0.342	0.375	0.761	0.828	0.663	0.395	0.27	0.441	0.476	0.414	0.326	0.314
NCI-H1437	0.3	0.279	0.253	0.206	0.192	1.11	0.959	0.187	0.12	0.0887	0.317	0.32	0.221	0.232	0.179	0.658	0.511	0.272	0.232	0.194
NCI-H1651	0.535	0.492	0.481	0.484	0.397	0.98	0.95	0.777	0.111	0.0858	0.636	0.578	0.468	0.402	0.326	0.18	0.157	0.15	0.14	0.153
NCI-H1666	0.631	0.637	0.597	0.414	0.445	1.22	0.834	0.493	0.29	0.292	0.827	0.83	0.651	0.52	0.447	0.79	0.786	0.622	0.56	0.466
